Source: PubChem BioAssay AID2060342 (Molecular Pharmacology Branch, DTP, NCI, 2025)
pIC50: −log10 of the molar value.

Test system: 171881-019-R-J1-PDC multicell spheroid viability
Assay: Anticancer human tumor 171881-019-R-J1-PDC patient-derived invasive breast carcinoma cell line growth inhibition [IpAb]
Details: for pIC50: curve of first compound; for viability, T/C: stronger effect = lower value
Procedure, shortened: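 Spheroids of 60% malignant cells, 25% HUVEC and 15% MSC were exposed to targeted agents combined with ipatasertib or abemaciclib. Doses started at or near clinical Cmax (10 microM when unknown) and fell in half-log steps.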

[1] = second compound 0.1 µM, first compound 0.0316 µM
[2] = second compound 0.1 µM, first compound 0.1 µM
[3] = second compound 0.1 µM, first compound 0.316 µM
[4] = second compound 0.1 µM, first compound 1 µM
[5] = second compound 0.1 µM, first compound 3.16 µM
[6] = second compound 0.1 µM, first compound 10 µM
[7] = second compound 0.316 µM, first compound 0.0316 µM
[8] = second compound 0.316 µM, first compound 0.1 µM
[9] = second compound 0.316 µM, first compound 0.316 µM
[10] = second compound 0.316 µM, first compound 1 µM
[11] = second compound 0.316 µM, first compound 3.16 µM
[12] = second compound 0.316 µM, first compound 10 µM
[13] = second compound 1 µM, first compound 0.0316 µM
[14] = second compound 1 µM, first compound 0.1 µM
[15] = second compound 1 µM, first compound 0.316 µM
[16] = second compound 1 µM, first compound 1 µM
[17] = second compound 1 µM, first compound 3.16 µM
[18] = second compound 1 µM, first compound 10 µM
[19] = second compound 3.16 µM, first compound 0.0316 µM
[20] = second compound 3.16 µM, first compound 0.1 µM
[21] = second compound 3.16 µM, first compound 0.316 µM
[22] = second compound 3.16 µM, first compound 1 µM
[23] = second compound 3.16 µM, first compound 3.16 µM
[24] = second compound 3.16 µM, first compound 10 µM
[25] = second compound 10 µM, first compound 0.0316 µM
[26] = second compound 10 µM, first compound 0.1 µM
[27] = second compound 10 µM, first compound 0.316 µM
[28] = second compound 10 µM, first compound 1 µM
[29] = second compound 10 µM, first compound 3.16 µM
[30] = second compound 10 µM, first compound 10 µM
[31] = second compound 0.1 µM, first compound 0.00949 µM
[32] = second compound 0.1 µM, first compound 0.03 µM
[33] = second compound 0.1 µM, first compound 0.0949 µM
[34] = second compound 0.1 µM, first compound 0.3 µM
[35] = second compound 0.316 µM, first compound 0.00949 µM
[36] = second compound 0.316 µM, first compound 0.03 µM
[37] = second compound 0.316 µM, first compound 0.0949 µM
[38] = second compound 0.316 µM, first compound 0.3 µM
[39] = second compound 1 µM, first compound 0.00949 µM
[40] = second compound 1 µM, first compound 0.03 µM
[41] = second compound 1 µM, first compound 0.0949 µM
[42] = second compound 1 µM, first compound 0.3 µM
[43] = second compound 3.16 µM, first compound 0.00949 µM
[44] = second compound 3.16 µM, first compound 0.03 µM
[45] = second compound 3.16 µM, first compound 0.0949 µM
[46] = second compound 3.16 µM, first compound 0.3 µM
[47] = second compound 10 µM, first compound 0.00949 µM
[48] = second compound 10 µM, first compound 0.03 µM
[49] = second compound 10 µM, first compound 0.0949 µM
[50] = second compound 10 µM, first compound 0.3 µM
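Also: spheroids exposed to the agents for seven days before readout.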

With `C=CC(=O)N1CCN(c2nc(=O)n(-c3c(C)ccnc3C(C)C)c3nc(-c4c(O)cccc4F)c(F)cc23)C(C)C1` (stereo not given) + CC(C)NCC(C(=O)N1CCN(c2ncnc3c2C(C)CC3O)CC1)c1ccc(Cl)cc1 the pIC50 (second compound 0.1 µM) was 5.28, the pIC50 (second compound 0.316 µM) was 5.74 and the pIC50 (second compound 1 µM) was over 7.50. It also gave a pIC50 (second compound 3.16 µM) of over 7.50, a pIC50 (second compound 10 µM) of over 7.50 and a viability, T/C [1] of 102%. For the same compound, the viability, T/C [2] was 87.7%, the viability, T/C [3] was 90% and the viability, T/C [4] was 95.9%. The viability, T/C [5] was 74.2%, the viability, T/C [6] was 19.5% and the viability, T/C [7] was 74.1%. It also gave a viability, T/C [8] of 67%, a viability, T/C [9] of 69% and a viability, T/C [10] of 64.7%. For the same compound, the viability, T/C [11] was 36.8%, the viability, T/C [12] was 13.2% and the viability, T/C [13] was 24.6%. The viability, T/C [14] was 26.6%, the viability, T/C [15] was 25.9% and the viability, T/C [16] was 22.1%. The viability, T/C [17] was 17.3%, the viability, T/C [18] was 7.56% and the viability, T/C [19] was 10.2%. It also gave a viability, T/C [20] of 11.7%, a viability, T/C [21] of 10.2% and a viability, T/C [22] of 11.5%. The viability, T/C [23] was 8.09%, the viability, T/C [24] was 4.11% and the viability, T/C [25] was 5.17%. It also gave a viability, T/C [26] of 5.24%, a viability, T/C [27] of 6.38% and a viability, T/C [28] of 5.65%. It also gave a viability, T/C [29] of 5.64% and a viability, T/C [30] of 3.86%.

Work on `CC(=O)c1c(C)c2cnc(Nc3ccc(N4CCNCC4)cn3)nc2n(C2CCCC2)c1=O` + CC(C)NCC(C(=O)N1CCN(c2ncnc3c2C(C)CC3O)CC1)c1ccc(Cl)cc1 yielded a pIC50 (second compound 0.1 µM) of under 6.52, a pIC50 (second compound 0.316 µM) of under 6.52 and a pIC50 (second compound 1 µM) of over 9.02. For the same compound, the pIC50 (second compound 3.16 µM) was over 9.02, the pIC50 (second compound 10 µM) was over 9.02 and the viability, T/C (second compound 0.1 µM, first compound 0.000949 µM) was 98.8%. The viability, T/C (second compound 0.1 µM, first compound 0.003 µM) was 112%, the viability, T/C [31] was 94% and the viability, T/C [32] was 106%. The viability, T/C [33] was 103%, the viability, T/C [34] was 93.5% and the viability, T/C (second compound 0.316 µM, first compound 0.000949 µM) was 83.3%. The viability, T/C (second compound 0.316 µM, first compound 0.003 µM) was 84.8%, the viability, T/C [35] was 77.4% and the viability, T/C [36] was 76.1%. The viability, T/C [37] was 64.6%, the viability, T/C [38] was 59.6% and the viability, T/C (second compound 1 µM, first compound 0.000949 µM) was 30.8%. It also gave a viability, T/C (second compound 1 µM, first compound 0.003 µM) of 26.1%, a viability, T/C [39] of 27.8% and a viability, T/C [40] of 25.9%. It also gave a viability, T/C [41] of 26.1%, a viability, T/C [42] of 23.9% and a viability, T/C (second compound 3.16 µM, first compound 0.000949 µM) of 12.4%. For the same compound, the viability, T/C (second compound 3.16 µM, first compound 0.003 µM) was 11.8%, the viability, T/C [43] was 12.2% and the viability, T/C [44] was 10.2%. The viability, T/C [45] was 9.89%, the viability, T/C [46] was 9.65% and the viability, T/C (second compound 10 µM, first compound 0.000949 µM) was 6.66%. For the same compound, the viability, T/C (second compound 10 µM, first compound 0.003 µM) was 6.56%, the viability, T/C [47] was 6.69% and the viability, T/C [48] was 5.87%. It also gave a viability, T/C [49] of 5.79% and a viability, T/C [50] of 5.34%.

Work on `CC(C)(C)c1cnc(CSc2cnc(NC(=O)C3CCNCC3)s2)o1` + CC(C)NCC(C(=O)N1CCN(c2ncnc3c2C(C)CC3O)CC1)c1ccc(Cl)cc1 yielded a pIC50 (second compound 0.1 µM) of 6.73, a pIC50 (second compound 0.316 µM) of 6.81 and a pIC50 (second compound 1 µM) of over 8.02. For the same compound, the pIC50 (second compound 3.16 µM) was over 8.02, the pIC50 (second compound 10 µM) was over 8.02 and the viability, T/C [31] was 104%. For the same compound, the viability, T/C [32] was 120%, the viability, T/C [33] was 133% and the viability, T/C [34] was 2.16%. It also gave a viability, T/C (second compound 0.1 µM, first compound 0.949 µM) of 0.19%, a viability, T/C (second compound 0.1 µM, first compound 3 µM) of 0.6% and a viability, T/C [35] of 82.3%. It also gave a viability, T/C [36] of 91%, a viability, T/C [37] of 89.2% and a viability, T/C [38] of 0.99%. For the same compound, the viability, T/C (second compound 0.316 µM, first compound 0.949 µM) was 0.25%, the viability, T/C (second compound 0.316 µM, first compound 3 µM) was 0.63% and the viability, T/C [39] was 24.9%. For the same compound, the viability, T/C [40] was 34.3%, the viability, T/C [41] was 38.6% and the viability, T/C [42] was 0.53%. The viability, T/C (second compound 1 µM, first compound 0.949 µM) was 0.49%, the viability, T/C (second compound 1 µM, first compound 3 µM) was 0.25% and the viability, T/C [43] was 11.1%. It also gave a viability, T/C [44] of 13.2%, a viability, T/C [45] of 19.1% and a viability, T/C [46] of 0.68%. It also gave a viability, T/C (second compound 3.16 µM, first compound 0.949 µM) of 0.24%, a viability, T/C (second compound 3.16 µM, first compound 3 µM) of 0.28% and a viability, T/C [47] of 5.77%. It also gave a viability, T/C [48] of 6.05%, a viability, T/C [49] of 9.31% and a viability, T/C [50] of 0.64%. For the same compound, the viability, T/C (second compound 10 µM, first compound 0.949 µM) was 0.26% and the viability, T/C (second compound 10 µM, first compound 3 µM) was 0.31%.

With `Cn1nccc1Nc1nccc(-c2ccn(C(CO)c3ccc(Cl)c(F)c3)c(=O)c2)n1` (stereo not given) + CC(C)NCC(C(=O)N1CCN(c2ncnc3c2C(C)CC3O)CC1)c1ccc(Cl)cc1 the pIC50 (second compound 0.1 µM) was 6.77, the pIC50 (second compound 0.316 µM) was 7.19 and the pIC50 (second compound 1 µM) was over 7.50. The pIC50 (second compound 3.16 µM) was over 7.50, the pIC50 (second compound 10 µM) was over 7.50 and the viability, T/C [1] was 111%. The viability, T/C [2] was 65.8%, the viability, T/C [3] was 32.5% and the viability, T/C [4] was 10.4%. The viability, T/C [5] was 7.79%, the viability, T/C [6] was 7.95% and the viability, T/C [7] was 69.1%. It also gave a viability, T/C [8] of 38.5%, a viability, T/C [9] of 9.02% and a viability, T/C [10] of 4.73%. It also gave a viability, T/C [11] of 3.47%, a viability, T/C [12] of 3.81% and a viability, T/C [13] of 17.9%. It also gave a viability, T/C [14] of 10.3%, a viability, T/C [15] of 3.68% and a viability, T/C [16] of 2.46%. For the same compound, the viability, T/C [17] was 2.13%, the viability, T/C [18] was 1.27% and the viability, T/C [19] was 6.73%. The viability, T/C [20] was 3.37%, the viability, T/C [21] was 2.44% and the viability, T/C [22] was 1.77%. The viability, T/C [23] was 0.69%, the viability, T/C [24] was 0.94% and the viability, T/C [25] was 3.16%. It also gave a viability, T/C [26] of 2.33%, a viability, T/C [27] of 1.55% and a viability, T/C [28] of 1.06%. For the same compound, the viability, T/C [29] was 0.84% and the viability, T/C [30] was 0.32%.
